The text below walks through data of US7049331B2, “1,2,4-thiadiazole derivatives as melanocortin receptor modulators” (Ortho-McNeil Pharmaceutical, Inc., priority 2001, dated 2006).

Structures are written as SMILES. Like-named read-outs stand apart in the source and are kept apart here.

The test system of one experiment is Hippocampal Cells. Briefly: Neurite Cell Outgrowth Assay, hippocampal cells. Type of experiment: cell-based. Particulars: Rattus norvegicus; 50 nM; percent change over the vehicle response; NA = no change/not active. The text has this: (§1) Dissociated hippocampal and cortical cell cultures were established from embryonic day 18 rat fetuses as described by Mattson, M. P., Barger, S. W., Begley, J, and Mark, R. J., Methods Cell Biol., 1994, 46:[…]. Briefly, fetuses were removed via cesarean section from pregnant moms (Sprague-Dawley) and anesthetized with halothane according to the AVMA Panel on Euthanasia. Pups were decapitated and the brains were removed and placed in HEPES-buffered Hank's Balanced Salt solution (HBSS; Gibco). The hippocampi and cortices were dissected out and pooled according to tissue-type. Tissue was trypsinized for 15 min (1 mg/ml trypsin-HBSS; Worthington), rinsed with fresh HBSS, incubated in trypsin inhibitor (1 mg/ml; Sigma) for 5 min, rinsed again with fresh HBSS and then triturated in 1 ml fresh HBSS with a fire-polished glass pipette. Dissociated cells were seeded at 30,000 cells/well onto poly-D-lysine coated 96-well plates (Collaborative BioScience). Each well contained 100 μl of Eagle's Minimal Essential Media (MEM; Gibco) supplemented with 26 mM NaHCO3 (Sigma), 56 mM glucose (Sigma), 15 mM KCl (Sigma), 1 mM sodium pyruvate (Sigma), 1.1 mM L-glutamine (Sigma), 10% (v/v) heat-inactivated fetal bovine serum (Hyclone), and 0.001% gentamicin sulfate (Sigma) (pH 7.4). Cells were allowed to attach for 24 h in a humidified 37° C. 5% CO2 incubator before experimental treatment. The culture media was aspirated and exchanged with fresh media every 3 days.
(§2) Twenty-four hours after plating, cultures were treated with vehicle (PBS+0.1% BSA), alpha-melanocyte stimulating hormone (α-MSH) or test compound (diluted in DPBS). Each treatment condition was run in quadruplicate. On the third day in culture, the media was aspirated off and replaced with fresh media and test compound. At one week in culture, the cells were fixed with 10% phosphate-buffered formalin for 15 min, then rinsed with DPBS (Sigma) and placed in blocking serum for 30 min (horse serum; 1:50 dilution in DPBS; Vector Labs). The cultures were rinsed again with DPBS and then incubated in primary antibody for 2 hr (microtubule-associated protein-2 (MAP-2) is a selective marker for dendritic processes; anti-mouse monoclonal (Chemicon); 1:1000 dilution of MAP-2 in antibody diluent (Zymed)). Negative control wells were incubated in antibody diluent alone. Background signal was determined by blank wells (cell-free) incubated with or without antibody. Cultures were rinsed again with DPBS and then placed in fluorescein for 1 hr (FITC; anti-mouse IgG; rat adsorbed; 1:50 dilution in DPBS; Vector Labs). Cultures were rinsed a final time with DPBS and the plates were then read on a Cytofluor 4000 fluorescence plate reader. Neurite outgrowth was expressed as percent change from control (vehicle).
(§3) The data are expressed as percent change over the vehicle response. All compounds were screened at 50 nM. The abbreviation NA indicates no change/not active; the abbreviation ND indicates a compound not tested/response not determined.

Experiment [1] deals with T1, melanocortin MC-4 receptor (Homo sapiens, UniProt P32245).
T1 construct: purchased Receptor Biology Inc
Kind of experiment: Melanocortin MC-4 Receptor Binding Assay (SPA). How it is done: Melanocortin MC-4 Receptor Binding Assay Melanocortin [MC-4]-membrane [purchased from Receptor Biology Inc] was coupled to wheat germ agglutinin coated polyvinyl toluene-Scintillation Proximity Assay beads [purchased from Amersham Pharmacia Inc.] for 30 min at 25° C. Into each well of a 96-well Opti plate [purchased from Packard, Calif.], 2.5 μg of membrane and 0.25 mg of beads were mixed in a volume of 100 μL media. […] Test compounds (1.5 μL) at 1 mM in 30% DMSO-50 mM HEPES, pH 7.4 buffer was added to separate wells on the plate. Radioactive ligand ^125I-NDP-melanocyte stimulating hormone [NEN, 2000Ci/mmol] was added to each well (48.5 μL per well, 40 pM final concentration). The plate was then sealed and let stand for 16 hr at 25° C. NDP-Melanocyte stimulating hormone peptide and α-melanocyte stimulating hormone peptide [purchased from Palomar Research Inc, 1 μM] were used as reference inhibitor compounds to define non-specific binding (N). Total binding (T) was defined using 30% DMSO-50 mM HEPES, pH 7.4 buffer. Bound radioactivity for each well (Y), measured at counts per minute (cpm) was measured in a TopCount [Packard, Calif.]. Percent inhibition was calculated as: […] The procedures described above for the melanocortin MC-4 receptor were repeated for the melanocortin MC-3 receptor. Following the procedures described, representative compounds of the present invention were tested for binding in the MC-4 and/or MC-3 assay, as listed in Table 4.

Experiment [2] deals with T1, melanocortin MC-4 receptor. Briefly: MC-4 receptor binding (Filtration). Conditions: Filtration; read-out: IC50 MC-4 (μM) (Filtration). As for the experimental part:
The procedures described above for the melanocortin MC-4 receptor were repeated for the melanocortin MC-3 receptor. Following the procedures described, representative compounds of the present invention were tested for binding in the MC-4 and/or MC-3 assay, as listed in Table 4.

The next experiment deals with Cortical Cells. Briefly: Neurite Cell Outgrowth Assay, cortical cells. Particulars: Rattus norvegicus; 50 nM; percent change over the vehicle response; NA = no change/not active. Type of experiment: cell-based.
Source text: as §1, §2, §3

For the next experiment, the system named is Food-Deprived Rats. Briefly: Rodent Feeding: Food Intake in Food-Deprived Rats (MC-4). Format: in vivo, rat. Conditions: Rattus norvegicus. The text has this:
Rodent Feeding: Food Intake in Food-Deprived Rats (MC-4)
Male Long-Evans rats (180–200 grams) were housed individually and maintained on a once-a-day feeding schedule (i.e.10 a.m. until 4 p.m.) for five days following quarantine to allow the animals to acclimate to feeding on powdered chow (#5002 PMI Certified Rodent Meal) during the allotted time. The chow was made available in an open jar, anchored in the cage by a wire, with a metal follower covering the food to minimize spillage. Water was available ad-libitum.
Animals were fasted for 18 hours prior to testing. At the end of the fasting period, animals were administered either a test compound or vehicle. Vehicle and test compound were administered either orally (5 mL/kg) 60 minutes prior to the experiment, subcutaneously (1 mL/kg) 30 minutes prior to the experiment, or intraperitoneally (1 mL/kg) 30 minutes prior to the experiment. Test compounds were administered orally as a suspension in aqueous 0.5% methylcellulose-0.4% Tween 80, or intraperitoneally as a solution or suspension in PEG 200; compound concentrations typically ranged from 1 mg/kg to 100 mg/kg, preferably from 10–30 mg/kg. Food intake was measured at 2, 4, and 6 hours after administration by weighing the special jar containing the food before the experiment and at the specified times. Upon completion of the experiment, all animals were given a one-week washout period before re-testing.
Following the procedure described above, select compounds of the present invention were tested to measure the effect on food intake in fasted rats, as listed in Table 5 and 6.

Setting [3] is: ip, 2 h, ip, read-out: Change in Food Intake 0–2 hrs (%).
Where [4] appears, read: ip, 6 h, ip, read-out: Change in Food Intake 2–6 hrs (%).
Where [5] appears, read: po, 2 h, po, read-out: Change in Food Intake 0–2 hrs (%).
Setting [6] is: po, 6 h, po, read-out: Change in Food Intake 2–6 hrs (%).

T1 sequence (P32245 whole entry): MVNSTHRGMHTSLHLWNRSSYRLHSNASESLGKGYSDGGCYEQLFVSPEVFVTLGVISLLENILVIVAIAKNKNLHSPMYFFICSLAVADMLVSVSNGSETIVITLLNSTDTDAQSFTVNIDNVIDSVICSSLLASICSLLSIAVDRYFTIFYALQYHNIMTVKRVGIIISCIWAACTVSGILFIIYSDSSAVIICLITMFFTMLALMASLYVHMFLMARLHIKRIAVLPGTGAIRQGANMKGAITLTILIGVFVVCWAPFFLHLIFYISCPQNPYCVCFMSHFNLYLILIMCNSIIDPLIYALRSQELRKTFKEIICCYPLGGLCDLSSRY

With `COc1ccccc1Nc1nc(-c2ccccc2)[n+](-c2ccc(Cl)cc2)s1` [Compound 17], the activation at 0.05 µM in the experiment with Hippocampal Cells is 8%; in the experiment on Cortical Cells it was 17%. Moreover, the figures for the IC50 in experiment [1] and in experiment [2] were 351 nM and 7.7 µM, respectively.

As to `Cc1ccccc1-[n+]1sc(Nc2ccccc2)nc1-c1ccccc1` [Compound 8], the IC50 stood at 201 nM in experiment [1] and 1.4 µM in experiment [2]. The activation at 0.05 µM in the experiment with Cortical Cells came out at 12%.

For `Cc1ccccc1Nc1nc(-c2ccccc2)[n+](-c2ccccc2)s1` [Compound 26], the activation at 0.05 µM came out at 16% in the experiment on Hippocampal Cells and 47% with Cortical Cells. This compound gave an IC50 in experiment [1] of 63 nM. Moreover, the change in vivo at 10 mg/kg in the experiment on Food-Deprived Rats (setting [3]) is -12.7%; with Food-Deprived Rats (setting [4]) it was -32.3%.

Regarding `Cc1ccccc1Nc1nc(-c2ccccc2)[n+](-c2ccc(Cl)cc2)s1` [Compound 19], the activation at 0.05 µM in the experiment on Hippocampal Cells is 22%. Also, the IC50 was determined as 460 nM in experiment [1] and 3.9 µM in experiment [2].

Turning to `Clc1ccc(Nc2nc(-c3ccccc3)[n+](-c3ccc(Cl)cc3)s2)cc1` [Compound 20], the activation at 0.05 µM in the experiment on Hippocampal Cells stood at 17%. The IC50 in experiment [1] stood at 636 nM; in experiment [2], 3.5 µM.

As for `COc1ccc(Nc2nc(-c3ccccc3)[n+](-c3ccccc3OC)s2)cc1` [Compound 29], the IC50 in experiment [1] is 48 nM. The values for the change in vivo at 10 mg/kg in the experiment on Food-Deprived Rats (setting [3]) and in the experiment on Food-Deprived Rats (setting [4]) were -62.3% and -70.7%, respectively. Besides, the results for the change in vivo at 30 mg/kg with Food-Deprived Rats (setting [5]) and with Food-Deprived Rats (setting [6]) were -26.3% and -3.7%, respectively. Further, in the experiment on Cortical Cells, the activation at 0.05 µM was determined as 8%.

As to `COc1ccc(Nc2nc(-c3ccccc3)[n+](-c3ccccc3C)s2)cc1` [Compound 9], the IC50 in experiment [1] turned out to be 217 nM; in experiment [2], 1.1 µM.

Turning to `COc1ccccc1-[n+]1sc(Nc2ccccc2C)nc1-c1ccccc1` [Compound 32], the IC50 in experiment [1] was found to be 48 nM. Further, the change in vivo at 10 mg/kg in the experiment on Food-Deprived Rats (setting [3]) was -29.6%. In addition, the change in vivo at 10 mg/kg with Food-Deprived Rats (setting [4]) is -60.2%. In addition, in the experiment on Food-Deprived Rats (setting [5]), the change in vivo at 1 mg/kg is -13.8%, the change in vivo at 3 mg/kg was -11.5%, the change in vivo at 10 mg/kg was -20% and the change in vivo at 30 mg/kg was -12.5%. In the experiment with Food-Deprived Rats (setting [6]), the change in vivo at 1 mg/kg stood at 26%, the change in vivo at 3 mg/kg came out at 31.2%, the change in vivo at 10 mg/kg is -1% and the change in vivo at 30 mg/kg was -15%. The activation at 0.05 µM with Cortical Cells came out at 6%.

As for `COc1ccc(-[n+]2sc(Nc3ccccc3Cl)nc2-c2ccccc2)cc1` [Compound 41], the activation at 0.05 µM is 36% in the experiment with Hippocampal Cells and 5% with Cortical Cells. For the same compound, in experiment [1], the IC50 worked out at 483 nM.

In the case of `COc1ccc(CNc2nc(-c3ccccc3)[n+](-c3ccccc3)s2)cc1` [Compound 51], the activation at 0.05 µM with Hippocampal Cells was 74%; in the experiment with Cortical Cells, 28%. The IC50 in experiment [1] is 1000 nM.

`COc1ccc(-c2nc(Nc3cccnc3)s[n+]2-c2ccc(OC)cc2)cc1` [Compound 64]: the activation at 0.05 µM in the experiment with Hippocampal Cells amounted to 22%; with Cortical Cells, 12%. In experiment [1], this compound returned an IC50 of 1200 nM.

Take `COc1ccc(-c2nc(Nc3ccc(C)cc3)s[n+]2-c2ccc(OC)cc2)cc1` [Compound 60]: the values for the activation at 0.05 µM with Hippocampal Cells and with Cortical Cells were 66% and 14%, respectively. For the same compound, the “IC50 MC-4 (nM) (SPA)” value in experiment [1] is “inactive”.

For `Clc1ccc(Nc2nc(-c3ccccc3)[n+](-c3ccccc3)s2)cc1` [Compound 27], the activation at 0.05 µM with Hippocampal Cells is 17%; with Cortical Cells it was 52%. This compound registered an IC50 in experiment [1] of 89 nM. In addition, the values for the change in vivo at 30 mg/kg in the experiment with Food-Deprived Rats (setting [3]) and with Food-Deprived Rats (setting [4]) were -27.4% and -29.1%, respectively.

For the compound `Clc1ccccc1Nc1nc(-c2ccccc2)[n+](-c2ccccc2)s1` [Compound 49], the results for the activation at 0.05 µM in the experiment on Hippocampal Cells and with Cortical Cells were 16% and 51%, respectively. The same compound came in with an IC50 in experiment [1] of 96 nM. Also, the change in vivo at 30 mg/kg in the experiment on Food-Deprived Rats (setting [3]) is -20.6%; in the experiment on Food-Deprived Rats (setting [4]), -21.2%.

`Cc1ccc(-[n+]2sc(Nc3ccccc3Cl)nc2-c2ccccc2)cc1` [Compound 7]: the IC50 in experiment [1] amounted to 218 nM; in experiment [2] it was 2.2 µM. Besides, the activation at 0.05 µM with Cortical Cells is 11%.

Compound `COc1ccccc1-[n+]1sc(Nc2ccccc2Cl)nc1-c1ccccc1` [Compound 34] gave an IC50 in experiment [1] of 46 nM. The change in vivo at 10 mg/kg in the experiment on Food-Deprived Rats (setting [3]) was -38%; in the experiment on Food-Deprived Rats (setting [4]), -72%; with Food-Deprived Rats (setting [5]), -1.3%; in the experiment with Food-Deprived Rats (setting [6]), -6%. The change in vivo at 30 mg/kg is -7.5% with Food-Deprived Rats (setting [5]) and 2% in the experiment with Food-Deprived Rats (setting [6]). This compound also came in with an activation at 0.05 µM in the experiment with Cortical Cells of 22%.

In the case of `COc1ccccc1Nc1nc(-c2ccccc2)[n+](-c2ccccc2)s1` [Compound 24], the activation at 0.05 µM was determined as 10% in the experiment with Hippocampal Cells and 16% with Cortical Cells. In experiment [1], this compound came in with an IC50 of 76 nM.
